Experiments:
conscious rats = test: Determination of CNS toxicity: convulsions in conscious rats on increasing i.v. infusion; format: in vivo; conditions: rat, in vivo; for convulsion dose: iv
[1] = system: sustained AF maintained during continuous vagal nerve stimulation; test: Canine vagal-AF model: termination of sustained AF; format: in vivo, dog; conditions: IV, anesthetized dogs
Experimental: St.-Georges et al., 1997). Dogs are ventilated mechanically with room air supplemented with oxygen via an endotracheal tube at 20 to 25 breaths/minute with a tidal volume obtained from a monogram. […] Catheters are inserted into the femoral artery for blood pressure recording and blood gas measurement, and into both femoral veins for drug administration and venous sampling. […] Body temperature is maintained at 37-40° C. with a heating blanket. The heart is exposed via a medial thoracotomy and a pericardial cradle is created. […] Drug effects to terminate sustained AF maintained during continuous vagal nerve stimulation are assessed. […] The vagal stimulation voltage is adjusted under control conditions, and then readjusted after each treatment to maintain the same bradycardic effect. […] Diastolic threshold and ERP are determined in duplicate and averaged to give a single value. […] The interval between the stimulus artefact and the peak of the local electrogram is measured as an index of conduction velocity. […] The stimulus voltage-heart rate relationship for vagal nerve stimulation is determined under control conditions in most experiments. […] After the termination of AF, the diastolic threshold and ERP of the atrium and ventricle are determined. […] Group data are expressed as the mean±SEM. […]

Structure (SMILES) | cum conv dose (conscious rats) | convulsion dose (conscious rats) | Median dose required for termination of AF [1] | Mean dose required for termination of AF ([1]; mean±EM)
c1ccc2cc(OCCO[C@H]3CCCCC3N3CCOCC3)ccc2c1 (stereo partly drawn) [Compound 33, (1R,2R)/(1S,2S)-[2-(4-morpholinyl)-1-[2-(2-naphthoxy)ethoxy]]-cyclohexane] | 61.63 µmol/kg | 8 µmol/kg/min |  | 
Brc1ccc(OCCO[C@H]2CCCCC2N2CCOCC2)cc1 (stereo partly drawn) [Compound 34, (1R,2R)/(1S,2S)-[2-(4-morpholinyl)-1-[2-(4-bromophenoxy)-ethoxy]]cyclohexane] | 83 µmol/kg | 10.7 µmol/kg/min |  | 
COc1ccc(CCO[C@H]2CCCCC2N2CCOCC2)cc1OC (stereo partly drawn) [Compound 35, (1R,2R)/(1S,2S)-[2-(4-morpholinyl)-1-(3,4-dimethoxy-phenethoxy)]-cyclohexane] | 113 µmol/kg | 16 µmol/kg/min |  | 
c1ccc2c(CCO[C@H]3CCCCC3N3CCOCC3)csc2c1 (stereo partly shown) [Compound 36] | 65 µmol/kg | 8 µmol/kg/min |  | 
c1cc(CCO[C@H]2CCCCC2N2CCOCC2)c2ccsc2c1 (stereo partly shown) [Compound 37] | 54 µmol/kg | 8 µmol/kg/min |  | 
Brc1cccc(CCO[C@H]2CCCCC2N2CCOCC2)c1 (stereo partly drawn) [Compound 38, (1R,2R)/(1S,2S)-[2-(4-morpholinyl)-1-(3-bromophenethoxy)]-cyclohexane] | 131 µmol/kg | 16 µmol/kg/min |  | 
Brc1ccccc1CCO[C@H]1CCCCC1N1CCOCC1 (stereo partly drawn) [Compound 39, (1R,2R)/(1S,2S)-[2-(4-morpholinyl)-1-(2-bromophenethoxy)]-cyclohexane] | 125 µmol/kg | 16 µmol/kg/min |  | 
Clc1ccc(CCO[C@H]2CCCCC2N2CCOCC2)cc1Cl (stereo partly drawn) [Compound 40, (1R,2R)/(1S,2S)-2-(4-morpholinyl)-1-(3,4-dichlorophenethoxy) cyclohexane] | 118 µmol/kg | 16 µmol/kg/min |  | 
Cl.O=C1CCN(C2CCCC[C@@H]2OCCc2c(Cl)cccc2Cl)C1 (stereo partly drawn) [Compound 41, (1R,2R)/(1S,2S)-2-(3-ketopyrrolidinyl)-1-(2,6-dichlorophenethoxy) cyclohexane monohydrochloride] | 190 µmol/kg | 32 µmol/kg/min |  | 
CC(=O)OC1CCN([C@@H]2CCCCC2OCCc2cccc3ccccc23)C1.Cl (stereo partly drawn) [Compound 43, (1R,2R)/(1S,2S)-2-(3-acetoxypyrrolidinyl)-1-(1-naphthenethoxy)cyclo hexane monohydrochloride] | 65 µmol/kg | 8 µmol/kg/min |  | 
Cl.Clc1cccc(Cl)c1COC1CCCC[C@H]1N1CCOCC1 (stereo partly drawn) [Compound 44, (1R,2R)/(1S,2S)-2-(4-morpholinyl)-1-[(2,6-dichlorophenyl)methoxy]cyclohexane monohydrochloride] | 97 µmol/kg | 16 µmol/kg/min |  | 
Cl.O=C1CCN([C@@H]2CCCCC2OCc2c(Cl)cccc2Cl)C1 (stereo partly drawn) [Compound 45, (1R,2R)/(1S,2S)-2-(3-ketopyrrolidinyl)-1-[(2,6-dichlorophenyl)methoxy]cyclohexane monohydrochloride] | 214 µmol/kg | 32 µmol/kg/min |  | 
Cl.OC1CCN(C2CCCC[C@@H]2OCCc2c(Cl)cccc2Cl)C1 (stereo partly drawn) [Compound 46, (1R,2R)/(1S,2S)-2-(3-hydroxypyrrolidinyl)-1-(2,6-dichlorophenethoxy) cyclohexane monohydrochloride] | 65 µmol/kg |  |  | 
Cl.O=C1CCN(C2CCCC[C@@H]2OCC(c2ccccc2)c2ccccc2)C1 (stereo partly drawn) [Compound 47, (1R,2R)/(1S,2S)-2-(3-ketopyrrolidinyl)-1-(2,2-diphenylethoxy)cyclo hexane monohydrochloride] | 155 µmol/kg | 21 µmol/kg/min |  | 
Cl.Clc1cccc(Cl)c1CCOC1CCCC[C@H]1N1CCSC1 (stereo partly drawn) [Compound 48, (1R,2R)/(1S,2S)-2-(3-thiazolidinyl)-1-(2,6-dichlorophenethoxy) cyclohexane monohydrochloride] | 331 µmol/kg | 43 µmol/kg/min |  | 
O=C(NCC1CCCCN1)c1cc(OCC(F)(F)F)ccc1OCC(F)(F)F (stereo not shown) [Flecainide] |  |  | 2.5 µmol/kg | 4 ± 2 µmol/kg

Reference: patent US20070099983A1, “Aminocyclohexyl ether compounds and uses thereof” (Cardiome Pharma Corp., priority 2003, published 2007)
